{"source": "paper PMC7076857", "about": "(Toxins, 2020)", "key": {"[1]": {"target": "Protein phosphatase 2A (PP2A) (Homo sapiens, UniProt P67775)", "sequence (P67775 whole entry, looked up)": "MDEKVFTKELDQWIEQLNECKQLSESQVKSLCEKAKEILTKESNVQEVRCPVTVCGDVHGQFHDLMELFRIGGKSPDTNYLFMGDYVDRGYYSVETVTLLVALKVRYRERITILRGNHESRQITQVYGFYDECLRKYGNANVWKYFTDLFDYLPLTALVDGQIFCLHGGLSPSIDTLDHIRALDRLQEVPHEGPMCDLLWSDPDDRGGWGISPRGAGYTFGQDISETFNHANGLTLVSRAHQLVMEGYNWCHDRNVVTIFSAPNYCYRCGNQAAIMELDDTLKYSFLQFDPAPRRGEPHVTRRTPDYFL", "assay_type": "biochemical", "details": "for IC50: read-out: IC50 (PP2A inhibition)"}, "PP2A": {"test_system": "PP2A", "details": "cited from earlier work", "source_text": "The positive and negative LC–HRMS spectra of 1 were consistent with a molecular formula of C55H77O13N7 which, together with the presence of a prominent [M + Na]^+ adduct ion, a weak neutral loss of m/z 134.0727, and the late retention time, were consistent with a non-Arg-containing MC. […] The negative ion MS/MS spectrum obtained from the FS/DIA (full scan/data indepe ..."}}, "note": "Read-outs that look alike come from different tables or passages of the source. Numbered stars: 1 amine (or outer) side, 2 acyl side, 3 side chain; on linkers, the order of the positions; unused ones are H or OH. Bridge positions count the residues as written; N and C are the ends. Square brackets hold non-standard residues; d marks the D form. Peptide text beside a SMILES is read from it. Adda = CO[C@@H](Cc1ccccc1)[C@@H](C)/C=C(C)/C=C/[C@H](N[*:1])[C@H](C)C(=O)[*:2]; dAsp(3S-Me) = C[C@H](C(=O)[*:3])[C@@H](N[*:1])C(=O)[*:2]; d(γGlu) = O=C(O)[C@@H](CCC(=O)[*:2])N[*:1]; NMeDha = C=C(NC)C(=O)O", "data": [{"compound": "C=C1C(=O)N[C@H](CC(C)C)C(=O)N[C@@H](CC(C)C)C(=O)N[C@@H](C(=O)O)[C@H](C)C(=O)N[C@@H](Cc2ccc(O)cc2)C(=O)N[C@@H](/C=C/C(C)=C/[C@H](C)[C@H](Cc2ccccc2)OC)[C@H](C)C(=O)N[C@@H](C(=O)O)CCC(=O)N1C", "note": "[Compound 1, [D-Leu^1]MC-LY] (Y[Adda][d(γGlu)][NMeDha][dL]L[dAsp(3S-Me)]-OH; lactam N-7)", "values": [{"measurement": "IC50 (PP2A inhibition)", "setting": "[1]", "result": 0.80, "unit": "ng/mL"}, {"measurement": "Potency in PP2A inhibition assay relative to MC-LR (2)", "setting": "[1]", "result": "essentially the same as for MC-LR (2)"}, {"measurement": "IC50", "setting": "[1]", "result": 760, "unit": "pM"}]}, {"compound": "C=C1C(=O)N[C@H](C)C(=O)N[C@@H](CC(C)C)C(=O)N[C@@H](C(=O)O)[C@H](C)C(=O)N[C@@H](CCCNC(=N)N)C(=O)N[C@@H](/C=C/C(C)=C/[C@H](C)[C@H](Cc2ccccc2)OC)[C@H](C)C(=O)N[C@@H](C(=O)O)CCC(=O)N1C", "note": "[Compound 2, MC-LR] (R[Adda][d(γGlu)][NMeDha][dA]L[dAsp(3S-Me)]-OH; lactam N-7)", "values": [{"measurement": "IC50 (PP2A inhibition)", "setting": "[1]", "result": 0.62, "unit": "ng/mL"}, {"measurement": "IC50", "setting": "[1]", "result": 620, "unit": "pM"}, {"measurement": "IC50", "setting": "PP2A", "result": 32, "unit": "pM"}]}, {"compound": "MC-LF [Compound 9]", "values": [{"measurement": "IC50 relative to MC-LR (2), fold higher", "setting": "PP2A; PP2A assay, MC-LF vs. MC-LR, ref 21 (Ikehara et al.)", "result": 3, "unit": "fold"}, {"measurement": "IC50", "setting": "PP2A; ref 21 (Ikehara et al.)", "result": 96, "unit": "pM"}]}]}
